Consider one molecule from publication PMC8067632, “Assessment and Development of the Antifungal Agent Caspofungin for Aerosolized Pulmonary Delivery” (Pharmaceutics, 2021).

For data set [1] the following is noted: IV administration, lung tissue; cited from earlier work. On the procedure: Morphologically Aspergillus grows and propagates within the lung cavity. […] This may explain low human efficacy (40%) of caspofungin in treating IPA. Drug concentr ... || Caspofungin for injection (tradename: […]®) is sold by Merck & Co., Inc. The approved […]® dose is a 70 mg loading dose and then 50 mg/daily. Previous intravenous (IV) studies with caspofungin in animals have shown that IV administered drug only delivers about 5% of the drug level in blood to the lungs. […] Most of the IV drugs is distributed to other sensitive target organs, such as the liver and kidneys, which if given in higher doses, can lead ...

In data set [2] the test system is Candida albicans Azole-R (20186.025). Description: microbe, parasite or virus in culture. To be noted: CLSI broth microdilution, azole-resistant strain, duplicate. It counts as cell-based. How it is done: (§1) Antifungal potency of the test article(s) was measured using the in vitro broth microdilution assay under test conditions described by the Clinical and Laboratory Standards Institute. Minimum Inhibitory Concentration (MIC) is defined as the lowest concentration of an agent that causes a specified reduction in visible growth of the microorganism. Minimum Effective Concentration (MEC) is defined as the lowest concentration of an agent that leads to the growth of small, rounded, compact hyphal forms, as compared to the hyphal growth typically seen in the growth control well. MIC values were determined for 9 Candida spp., and MEC values were determined for filamentous fungus species (Aspergillus fumigatus and Trichophyton rubrum). Details of the test article preparations and methodologies are described in Supplementary Material S1.
(§2) Following incubation, the test plates were visually examined and wells were scored for growth or complete growth inhibition to define the MIC values. Microscopy examination was used to determine the MEC values. Each test substance was evaluated in duplicate and the results are the duplicate test values. Vehicle-control and an active reference agent were used as blank and positive controls, respectively. […]
(§3) S1. In Vitro Testing, Test Article Preparations
(§4) The 5 mg/mL stock solution was prepared as the following. The refrigerated vial was equilibrated to room temperature. Test vial was reconstituted aseptically with 10.5 mL 0.9% NaCl. The powder was dissolved completely, mixing until a clear solution was ob-tained. The final concentration was 5.0 mg/mL of caspofungin freebase. The reconstituted solution was stable for 1 hr at room temperature. The 5 mg/mL stock solution was then […]
(§5) The refrigerated vial was equilibrated to room temperature. The powder was dis-solved completely, mixing until a clear solution was obtained. Test vial was reconstituted aseptically with 1.8 mL 0.9% NaCl. The white to off-white powder was dissolved com-pletely, mixing gently until a clear solution was obtained. The final concentration was 5.0 mg/mL of caspofungin freebase. The reconstituted solution was used within 1 hr at room temperature. The 5 mg/mL stock solution was then diluted with 0.9% NaCl to prepare the […]
(§6) 1.3. Caspofungin Diacetate
(§7) The 5 mg/mL API stock solution was prepared as the following. The refrigerated vial was equilibrated to room temperature. Test vial was filled aseptically with 1.8 mL 0.9%
(§8) NaCl. The powder was dissolved completely, mixing until a clear solution was obtained.
(§9) The final concentration was 5.0 mg/mL of caspofungin freebase. The reconstituted solu-tion was used within 1 hr at room temperature. The 5 mg/mL stock solution was then […]
(§10) g compound, corresponding to 1.2 mg active compound with a correction factor of 2.40 was added 0.375 mL of water for injection to generate the 3.2 mg/mL working stock solution for testing. The 3.2 mg/mL working stock solution was 2-fold diluted seri-ally in 0.9% NaCl to prepare a total of eleven 50-fold stock solutions, concentrations rang-ing from 3.2 to 0.003 mg/mL. A 4 μL aliquot of each dilution was added to 196 μL of broth medium seeded with the organism suspension in wells of a 96 well plate (fungal cell count: 1 x 10^3 to 1 x 10^4 colony forming units per mL). The final volume was 200 μL in each […]
In general terms: Broth dilution looks for growth in wells or tubes with falling amounts of substance.

The next data set deals with Candida krusei ATCC 6258. Description: microbe, parasite or virus in culture. It counts as cell-based. To be noted: CLSI broth microdilution, duplicate. On the procedure: as §1, §2, §3, §4, §5, §6, §7, §8, §9, §10
Data set [3] relates to Candida albicans Azole-R (20183.073). Description: microbe, parasite or virus in culture. The class given is cell-based. To be noted: CLSI broth microdilution, azole-resistant strain, duplicate. How it is done: as §1, §2, §3, §4, §5, §6, §7, §8, §9, §10
Data set [4] relates to Candida parapsilosis ATCC 22019. Description: microbe, parasite or virus in culture. The class given is cell-based. To be noted: CLSI broth microdilution, duplicate. How it is done:
as §1, §2, §3, §4, §5, §6, §7, §8, §9, §10

Data set [5] concerns Candida albicans ATCC90028 + 50%human serum. Description: microbe, parasite or virus in culture. To be noted: CLSI broth microdilution, duplicate. It counts as cell-based. On the procedure:
as §1, §2, §3, §4, §5, §6, §7, §8, §9, §10

The subject of data set [6] is Candida tropicalis ATCC 200956. Description: microbe, parasite or virus in culture. It counts as cell-based. To be noted: CLSI broth microdilution, duplicate. How it is done:
as §1, §2, §3, §4, §5, §6, §7, §8, §9, §10

Data set [7] has as its system Candida glabrata ATCC 36583. In words: microbe, parasite or virus in culture. It counts as cell-based. The conditions noted are these: CLSI broth microdilution, duplicate. How it is done:
as §1, §2, §3, §4, §5, §6, §7, §8, §9, §10

Consider `CC[C@H](C)C[C@H](C)CCCCCCCCC(=O)N[C@H]1C[C@@H](O)[C@@H](NCCN)NC(=O)[C@@H]2[C@@H](O)CCN2C(=O)[C@H]([C@H](O)CCN)NC(=O)[C@H]([C@H](O)[C@@H](O)c2ccc(O)cc2)NC(=O)[C@@H]2C[C@@H](O)CN2C(=O)[C@H]([C@@H](C)O)NC1=O` [Caspofungin Diacetate], for which the “percentage of IV delivered drug detected in lung” value in data set [1] was “about 5%”. Moreover, the MIC was found to be 0.25 µg/mL in data set [2]; 1 µg/mL with Candida krusei ATCC 6258; 0.25 µg/mL in data set [3]; 1 µg/mL in data set [4]; 0.125 µg/mL in data set [5]; 0.25 µg/mL in data set [6]. Besides, the MIC in data set [7] turned out to be 0.25 µg/mL.
